Data as given in patent US20140249076A1, “AMYLIN-CALCITONIN CHIMERIC PEPTIDES CONJUGATED TO DURATION ENHANCING MOIETIES” (AMYLIN PHARMACEUTICALS, LLC, priority 2011, published 2014).
Numbered stars: 1 amine (or outer) side, 2 acyl side, 3 side chain; on linkers, the order of the positions; unused ones are H or OH. Bridge positions count the residues as written; N and C are the ends. Side chains are listed from the residue outwards. Peptide text beside a SMILES is read from it. * marks the point of attachment. γGlu = O=C(O)[C@H](CCC(=O)[*:2])N[*:1]; Palmitoyl = CCCCCCCCCCCCCCCC(=O)*

Key:
[1] = test system: male Harlan Sprague-Dawley rats; assay: Stress-induced hyperthermia (SIH) assay; format: in vivo, rat; settings: 0.1 mg/kg IP, 18 hr pretreatment
Text: Stress-induced hyperthermia (SIH). Body temperature and emotional state are closely related in humans. Without wishing to be bound by any theory, it is believed that stress-induced hyperthermia (SIH) in rodents has predictive validity for certain human anxiety/stress disorders. The SIH assay assesses the effect of test agents (e.g, anxiolytics) on core body temperature following restraint stress. See, for example, Zethof et al., 1994, Physiol. Behay. 55:109-115. Anxiolytics typically blunt the increase in body temperature, or hyperthermic response, following stress exposure. […] Test animals can then be patiented to two sequential rectal temperature measurements at a measured time interval (e.g, 30 min). The difference between the second temperature reading and the first temperature reading (ΔT) is the stress-induced hyperthermic response.
As described above, it is believed that stress-induced hyperthermia (SIH) in rodents (e.g., rats) has predictive validity for certain human anxiety/stress disorders. […] Temperature readings were obtained remotely at the time of injection and at t=0 and t=30 minutes. The SIH response was defined as the change from t=30 back to t=0 minutes, while effects on basal temperature were calculated as the change from t=0 back to the time of injection.

[2] = test system: mice; assay: Forced swim test (FST); format: in vivo, mouse; settings: qualitative result; 0.03 mg/kg dosing, as in Example 8
Text: The forced swim test (FST) is a commonly used paradigm to evaluate antidepressant activity of drugs. The FST is based on measurement of the animal's floating time in a tank filled with water. When rats or mice are forced to swim in a deep cylinder with tepid water they become nearly immobile and cease trying to escape. Without wishing to be bound by any theory, it is believe that this characteristic immobile posture reflects a depressive-like state which is readily influenced by a wide variety of antidepressants. See, e.g., Hedou et al., 2001, Pharmacol, Biochem. Behay. 70:65-76; Chaki et al., 2003, J. Pharmacol. Exp. Ther. 304:818-826; Porsolt et al., 1977, Nature 266:730-732. Antidepressants decrease the immobility time in the FST. Vehicle or test compound can be delivered continuously for two weeks to mice by subcutaneously implanted osmotic pumps prior to the FST. Indeed, any route of administration (e.g., intraperitoneal, subcutaneous, oral and the like) is available. Mice can be placed in the water tank for assessment of climbing, swimming, and immobility over a defined trial session, typically 6 minutes. Test session parameters for mice and rats are typically different, as known in the art.
The forced swim test (FST) is a commonly used paradigm to evaluate antidepressant activity of drugs. […] Specifically, vehicle or test compound was delivered continuously for two weeks to mice by subcutaneously implanted osmotic pumps prior to the FST assay, by methods well known in the art. On day one, the patients were introduced into the tank for a 15 minute pre-swim session. On day two, the patients were placed back into the water tank for assessment of climbing, swimming, and immobility over a 6 minute trial session. The rate of compound infusion was 0.03 mg/kg/day.

[3] = biological target: T1, Calcitonin receptor (Rattus norvegicus, UniProt P32214); assay: Calcitonin receptor binding assay (125I-human calcitonin, C1a-HEK cell membranes); settings: Table 8
T1 construct: expressed in transfected cells; host or cells: C1a-HEK cells (HEK cells stably expressing the receptor), membranes
T1 sequence (P32214 25-479 isoform P32214-2 limits assumed): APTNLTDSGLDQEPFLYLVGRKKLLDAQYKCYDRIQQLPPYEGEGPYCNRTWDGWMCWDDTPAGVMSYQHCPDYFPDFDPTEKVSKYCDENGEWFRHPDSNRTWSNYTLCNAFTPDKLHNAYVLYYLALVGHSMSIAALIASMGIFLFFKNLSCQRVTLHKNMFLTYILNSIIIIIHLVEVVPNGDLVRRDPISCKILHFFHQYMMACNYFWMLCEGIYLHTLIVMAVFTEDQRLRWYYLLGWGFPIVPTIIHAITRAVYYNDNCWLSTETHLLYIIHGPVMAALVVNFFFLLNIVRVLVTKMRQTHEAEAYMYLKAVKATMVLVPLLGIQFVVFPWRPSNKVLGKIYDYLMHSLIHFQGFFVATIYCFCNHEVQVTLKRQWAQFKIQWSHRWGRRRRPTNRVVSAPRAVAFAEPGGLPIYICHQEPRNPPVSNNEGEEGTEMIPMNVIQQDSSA
Method: (§1) Calcitonin receptor binding assay. C1a-HEK cell membranes can be incubated with approximately 50 μM (final concentration) of ^125I-human calcitonin (PerkinElmer, Waltham, Mass.) and increasing concentrations of test compound for 1 hour at ambient temperature in, for example, 96-well polystyrene plates. […] Dried glass fiber plates can be combined with scintillant and counted on a multiwell Perkin Elmer scintillation counter.
(§2) A variety of receptor binding and functional activity assays were conducted using the peptide conjugates described herein. Receptor binding activity can be expressed, for example in Table 6, as an IC50 value, calculated from the raw data using an iterative curve-fitting program using a 4-parameter logistic equation (PRISM®, GraphPAD Software, La Jolla, Calif.), as known in the art.
as §1, with “For the calcitonin” for “Calcitonin”, “assay,” for “assay.”, “were” for “can be”, “in” for “in, for example,”

[4] = biological target: T2, Amylin receptor (Rattus norvegicus, UniProt P32214); assay: Amylin receptor binding assay (125I-rat amylin, RNA membranes); settings: Table 8
T2 construct: from tissue; read as rat nucleus accumbens membranes
T2 sequence (P32214 25-516): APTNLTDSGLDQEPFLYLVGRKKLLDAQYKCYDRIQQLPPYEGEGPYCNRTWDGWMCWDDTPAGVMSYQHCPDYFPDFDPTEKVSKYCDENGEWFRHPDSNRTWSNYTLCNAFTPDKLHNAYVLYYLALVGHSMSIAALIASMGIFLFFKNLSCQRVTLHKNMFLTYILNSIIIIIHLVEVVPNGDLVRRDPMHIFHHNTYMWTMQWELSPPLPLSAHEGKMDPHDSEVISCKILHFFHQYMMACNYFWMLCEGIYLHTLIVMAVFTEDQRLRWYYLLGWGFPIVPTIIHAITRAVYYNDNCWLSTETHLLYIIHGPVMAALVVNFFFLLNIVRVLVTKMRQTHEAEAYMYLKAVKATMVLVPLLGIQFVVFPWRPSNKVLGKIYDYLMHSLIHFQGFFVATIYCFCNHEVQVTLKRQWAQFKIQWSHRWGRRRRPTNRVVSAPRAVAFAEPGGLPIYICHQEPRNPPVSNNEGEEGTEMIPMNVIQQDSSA
T2 sequence (Q9JJ74 27-148 partner): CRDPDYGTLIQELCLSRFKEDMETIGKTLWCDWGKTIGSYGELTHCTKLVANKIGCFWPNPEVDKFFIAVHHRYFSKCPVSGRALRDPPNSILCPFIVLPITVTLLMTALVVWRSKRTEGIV
Method: as §1, with “Amylin” for “Calcitonin”, “RNA” for “C1a-HEK cell”, “[…]” for “50”, “^125I-rat amylin (Bolton-Hunter labeled, PerkinElmer,” for “^125I-human calcitonin (PerkinElmer,”, “multi-well” for “multiwell”
as §2
For the amylin receptor binding assay, RNA membranes were incubated with approximately […] (final concentration) of ^125I-rat amylin (Bolton-Hunter labeled, PerkinElmer, Waltham, Mass.) and increasing concentrations of test compound for 1 hour at ambient temperature in 96-well polystyrene plates. […] Dried glass fiber plates were combined with scintillant and counted on a multi-well Perkin Elmer scintillation counter, as well known in the art.

IC50 [3]	IC50 [4]	Compound	SIH response [1]	FST Assay, 0.03 mg/kg [2]
–	–	CCCCCCCCCCCCCCCC(=O)N[C@@H](CCC(=O)NCCCC[C@H](NC(=O)[C@@H](NC(=O)[C@H](CCCNC(=N)N)NC(=O)[C@@H]1CCCN1C(=O)[C@H](Cc1ccc(O)cc1)NC(=O)[C@@H](NC(=O)[C@H](CCC(N)=O)NC(=O)[C@H](CC(C)C)NC(=O)[C@H](CCCNC(=N)N)NC(=O)[C@H](Cc1c[nH]cn1)NC(=O)[C@H](CC(C)C)NC(=O)[C@H](CCC(=O)O)NC(=O)[C@H](CCC(N)=O)NC(=O)[C@H](C)NC(=O)[C@H](CC(C)C)NC(=O)[C@H](CCCNC(=N)N)NC(=O)[C@H](CCC(N)=O)NC(=O)[C@H](CC(C)C)NC(=O)[C@H](C)NC(=O)[C@@H]1CSSC[C@H](NC(=O)[C@@H](N)CCCCN)C(=O)N[C@@H](CC(N)=O)C(=O)N[C@@H]([C@@H](C)O)C(=O)N[C@@H](C)C(=O)N[C@@H]([C@@H](C)O)C(=O)N1)[C@@H](C)O)[C@@H](C)O)C(=O)N[C@H](C(=O)NCC(=O)N[C@@H](CO)C(=O)N[C@@H](CC(N)=O)C(=O)N[C@H](C(=O)N[C@@H](Cc1ccc(O)cc1)C(N)=O)[C@@H](C)O)C(C)C)C(=O)O [Cmpd 189, [K^26ε-(γ-Glu(Nα-C16-Chain))]-Cmpd 17] (H-KCNTATCALQRLAQELHRLQTYPRTK([γGlu-Palmitoyl])VGSNTY-NH2; disulfide 2-7 (inferred); N-terminus assumed)	statistically insignificant reduction in SIH	Active
0.095 nM	0.028 nM	CC(C)C[C@H](NC(=O)[C@H](C)NC(=O)[C@@H]1CSSC[C@H](NC(=O)[C@@H](N)CCCCN)C(=O)N[C@@H](CC(N)=O)C(=O)N[C@@H]([C@@H](C)O)C(=O)N[C@@H](C)C(=O)N[C@@H]([C@@H](C)O)C(=O)N1)C(=O)N[C@@H](CCC(N)=O)C(=O)N[C@@H](CCCNC(=N)N)C(=O)N[C@@H](CC(C)C)C(=O)N[C@@H](C)C(=O)N[C@@H](CCC(N)=O)C(=O)N[C@@H](CCC(=O)O)C(=O)N[C@@H](CC(C)C)C(=O)N[C@@H](Cc1c[nH]cn1)C(=O)N[C@@H](CCCNC(=N)N)C(=O)N[C@@H](CC(C)C)C(=O)N[C@@H](CCC(N)=O)C(=O)N[C@H](C(=O)N[C@@H](Cc1ccc(O)cc1)C(=O)N1CCC[C@H]1C(=O)N[C@@H](CCCNC(=N)N)C(=O)N[C@H](C(=O)N[C@@H](CC(N)=O)C(=O)N[C@H](C(=O)NCC(=O)N[C@@H](CO)C(=O)N[C@@H](CC(N)=O)C(=O)N[C@H](C(=O)N[C@@H](Cc1ccc(O)cc1)C(N)=O)[C@@H](C)O)C(C)C)[C@@H](C)O)[C@@H](C)O [Cmpd 17] (H-KCNTATCALQRLAQELHRLQTYPRTNVGSNTY-NH2; disulfide 2-7; N-terminus assumed)	–	Inactive
